According to patent US20040127567A1, “Novel methods for treating disorders in which docosahexaenoic acid (DHA) levels are affected” (Beth Israel Deaconess Medical Center, Inc., priority 1998, published 2004):

Assays:
wild-type mice [1] = experiment: DHA and AA levels in plasma, red blood cells and pancreas following DHA therapy; type: in vivo, mouse; conditions: 40 mg DHA/day
Protocol: In this Example, levels of DHA and AA in various blood components following administration of 40 mg DHA/day to mice was determined. In particular, 40 mg DHA was given to wild type mice and levels of DHA (Table 11) and AA (Table 12) were measured in plasma, red blood cells (RBC), and the pancreas. […] Accordingly, either plasma or red blood cell levels of DHA and AA (and their ratios) can be used as a diagnostic or to determine the effectiveness of treatment in the pancreas and other affected organs.

wild-type mice [2] = experiment: Fatty acid levels (GC/MS) in pancreas and lung cells of wild-type mice fed n-3 fatty acids; type: in vivo, mouse; conditions: for Change in phospholipid/membrane-bound AA (in words) / Change in phospholipid/membrane-bound DHA (in words): 40 mg/day for one week
Protocol: Mouse pancreatic acinar and lung cell suspensions were prepared from wild type (n=3) and CFTR−/− mice (n=3) by enzymatic and mechanical dissociation. In addition, brain, kidney, heart, spleen, and blood were sonicated in 0.3M sucrose buffer. Membrane lipids were extracted from cell and organ preparations with 20 volumes of chloroform-methanol 2:1 (v/v), transmethylated with 0.5 mL of 0.1 N methanolic-NaOH/BF3 reagent, and the resulting fatty acid methyl esters analyzed by gas chromatography/mass spectrometry (GC/MS). In a different set of experiments, lipids were fractionated by aminopropyl column chromatography into triglycerides, cholesterol esters, and phosphoglycerides and the fatty acid composition of each lipid class determined by a combination of enzymatic hydrolysis, transmethylation, and GC/MS.
Cystic fibrosis (UNC strain) and wild type mice (12-20 grams body weight) were fed with a complete liquid enteral formulation (Peptamen™, Nestle Clinical Nutrition, […], Springville, Utah). DHA content in the Neuromins formulation was 100 mg per 500 mg of formulation. […]
[…] The pellets (0.5 mL for pancreas cell homogenate and 0.6 mL for lung cell homogenate) were extracted with 3 mL of chloroform-methanol 2:1 (v/v). The resulting emulsion was vortexed, centrifuged at 800 g for 3 min., and the lower phase aspirated. The residual upper phase was partitioned again with 3 mL of chloroform-methanol 2:1 (v/v), the lower phase aspirated and both lower phases combined. Fractions were evaporated to dryness, processed for FAME and analyzed by GC-MS. Aliquots of 20 μL of 17:0 in chloroform-methanol 2:1 (v/v) were added to the samples before methylation.
CFTR−/− mice were prepared as described in Example 1. Both CFTR−/− mice and wild type mice were euthanized with carbon dioxide, and cell suspensions from pancreas and lung isolated. Pancreatic acini were prepared by collagenase and mechanical dissociation (Bruzzone et al., (1985) Biochem. J. 226:621-624). A total lung cell suspension was prepared by first flushing contaminating blood by repeated injection of lung with Krebs Henseleit buffer (KHB). Tissue was then extensively minced and incubated for 30 minutes at 37° C. in 10 ml of KHB containing 1,000 units of collagenase (Worthington Biochemical, PA) 2,000 units of DNase, and 0.5 units of thermolysin (Sigma Chemical Co., St. Louis, Mo.). The resulting cell suspension was sedimented once through KHB containing 5% BSA and subsequently washed once in KHB, pH 7.4 containing 32 mM bicarbonate, 10 mM Hepes, and 0.5% BSA. Brain, kidney, and heart were removed and sonicated in 0.5 mL and 0.3M sucrose. A similar approach was used for duodenum and ileum except that mucosal scrapings were used for sonication.
Since the pancreas and the lung are the two primary organs affected in cystic fibrosis, AA and DHA levels in cell preparations of these organs and in wild-type and CFTR−/− mice were quantitated by GC/MS analysis. Lipids were extracted from cell suspensions, tissue homogenates, and blood plasma with 6 volumes of chloroform-methanol (2:1, v/v). The resulting emulsions were centrifuged at 600 g for 3 min and the lower phase containing the lipids was collected. This procedure was repeated twice and the lower phases from the two extractions combined. Aliquots of 30 μL of heptadecanoic acid (17:0) (1 mg/ml) were added to the extracts and used as an internal standard.

[3] = WT mouse fed Peptamen supplemented with DHA
[4] = wild-type mice, listed as 18:3n-3
[5] = wild-type mice, 40 mg DPA per day for 7 days

SMILES: CC/C=C\C/C=C\C/C=C\C/C=C\C/C=C\C/C=C\CCC(=O)O [DHA, docosahexaenoic acid]
- Phospholipid-bound AA level in RBC (wild-type mice [1]; day 2): 10.1 nmoles/100 million cells
- Phospholipid-bound AA level in pancreas (wild-type mice [1]; day 2): 262 nmoles per total extract
- Phospholipid-bound AA level in plasma (wild-type mice [1]; day 2): 227 µg/mL
- Phospholipid-bound DHA level in pancreas (wild-type mice [1]; day 2): 67.8 nmoles per total extract
- Phospholipid-bound AA level in RBC (wild-type mice [1]; day 4): 6.2 nmoles/100 million cells
- Phospholipid-bound AA level in pancreas (wild-type mice [1]; day 4): 139 nmoles per total extract
- Phospholipid-bound AA level in plasma (wild-type mice [1]; day 4): 123 µg/mL
- Phospholipid-bound DHA level in pancreas (wild-type mice [1]; day 4): 101.0 nmoles per total extract
- Phospholipid-bound AA level in RBC (wild-type mice [1]; day 7): 3.7 nmoles/100 million cells
- Phospholipid-bound AA level in pancreas (wild-type mice [1]; day 7): 104 nmoles per total extract
- Phospholipid-bound AA level in plasma (wild-type mice [1]; day 7): 84 µg/mL
- Phospholipid-bound DHA level in pancreas (wild-type mice [1]; day 7): 125 nmoles per total extract
- 20:4n-6 in lung (wild-type mice [2]; [3]): 28 nmoles per total extract
- 20:4n-6 in pancreas (wild-type mice [2]; [3]): 82 nmoles per total extract
- 22:4n-6 in lung (wild-type mice [2]; [3]): 2 nmoles per total extract
- 22:4n-6 in pancreas (wild-type mice [2]; [3]): 1.6 nmoles per total extract
- 22:6n-3 in lung (wild-type mice [2]; [3]): 227 nmoles per total extract
- 22:6n-3 in pancreas (wild-type mice [2]; [3]): 200 nmoles per total extract

SMILES: CC/C=C\C/C=C\C/C=C\CCCCCCCC(=O)O [LNA, α-linolenic acid, reference compound]
- Change in phospholipid/membrane-bound AA (in words) (wild-type mice [2]; wild-type mice): decrease in membrane-bound AA
- Change in phospholipid/membrane-bound DHA (in words) (wild-type mice [2]; wild-type mice): increase in membrane-bound DHA
- Change in phospholipid/membrane-bound AA (in words) (wild-type mice [2]; [4]): decrease in phospholipid-bound AA
- Change in phospholipid/membrane-bound DHA (in words) (wild-type mice [2]; [4]): increase in phospholipid-bound DHA

SMILES: CC/C=C\C/C=C\C/C=C\C/C=C\C/C=C\CCCCCC(=O)O [DPA, docosapentaenoic acid]
- 20:4n-6 in lung (wild-type mice [2]; [5]): 7.8 ± 0.9 (17.5) nmoles of fatty acid per mg of protein
- 20:4n-6 in pancreas (wild-type mice [2]; [5]): 6.8 ± 0.6 (13.3) nmoles of fatty acid per mg of protein
- 20:5n-3 in lung (wild-type mice [2]; [5]): 8.6 ± 0.8 (0.07) nmoles of fatty acid per mg of protein
- 20:5n-3 in pancreas (wild-type mice [2]; [5]): 7.5 ± 0.8 (0.07) nmoles of fatty acid per mg of protein
- 22:6n-3 in lung (wild-type mice [2]; [5]): 7.5 ± 0.8 (4.0) nmoles of fatty acid per mg of protein
- 22:6n-3 in pancreas (wild-type mice [2]; [5]): 2.5 ± 0.4 (1.5) nmoles of fatty acid per mg of protein
